For data set [1], the system named is sc 9L tumour cells. Details: method as in Wong et al., 1989; 1990. The conditions noted are these: Table I, clamped sc 9L tumours, ref Wong et al., 1989; 1990; cited from earlier work.
Details of data set [2]: method as in Wong et al., 1989; 1990. The conditions noted are these: sc 9L tumours, ref Wong et al., 1989; 1990; cited from earlier work.
The subject of a further data set is 9L cells. Kind of data set: In vitro colony formation of 9L cells treated at defined oxygen concentrations. Type of data set: cell-based, rat. The source says:
Br 1 acr(91,6,4448?McilnPesLd,19 Pharmacokinetics and cytotoxicity of RSU-1069 in subcutaneous 9L tumours under oxic and hypoxic conditions K-H. Wong',*, C.J. Koch2, C. A. Wallen' & K.T. Wheeler' 'Experimental Radiation Oncology, Department of Radiology, Bowman Gray School of Medicine, Winston-Salem, North Carolina 27103; and 2Department of Radiation Oncology, University of Pennsylvania, Philadelphia, Pennsylvania 19104, USA. Summary The acute toxicity, pharmacokinetics and hypoxic cytotoxicity of RSU-1069 were investigated using the subcutaneous (sc) rat 9L tumour model. The pharmacokinetics were studied after i.p. injection of RSU-1069 (20mgkg-' or 100mgkg-'). […] The 2-nitroimidazoles, originally designed as electron affinic radiosensitisers, have been reported to selectively kill hypoxic cells (Adams et al., 1980). This hypoxic cytotoxicity appears to be related to the anaerobic bioreductive metabolism of the drugs that releases reactive cytotoxic metabolites (Clark et al., 1980; Brown, 1982). By adding an alkylating group to the side chain of a 2-nitroimidazole, Adams et al. (1984a,b) postulated that a more efficient chemopotentiator and killer of hypoxic cells could be made without the compound losing its ability to sensitise hypoxic cells to ionising radiation. RSU-1069 was one of the compounds synthesised to achieve this goal. […]

For data set [3] the following is noted: B16 and HX 118 melanomas, ref Deacon et al., 1986; Walling et al., 1989; cited from earlier work.
The test system of another data set is hypoxic cells. Details: method as in Adams et al., 1984a. The conditions noted are these: estimated at plasma level of 2-4 µg ml-1, ref Adams et al., 1984a; cited from earlier work.
The next data set has as its system KHT and RIF tumours. Details: method as in Bremner et al. (1990). The settings on record: tumours clamped 60 min after 80 mg kg-1, ref Bremner et al. (1990); cited from earlier work.
For data set [4] the following is noted: KHT fibrosarcoma, ref Walton & Workman, 1988; cited from earlier work.
The conditions of data set [5]: mice, i.p. doses of 50 and 100 mg kg-1, ref Walton & Workman (1988); cited from earlier work.
For data set [6] the following is noted: ref Horwich et al., 1986, cited from earlier work.
For data set [7], the system named is sc 9L tumour cells. Also noted: AUC30: unit not given beside the values. The source says: (§1) Br 1 acr(91,6,4448?McilnPesLd,19 Pharmacokinetics and cytotoxicity of RSU-1069 in subcutaneous 9L tumours under oxic and hypoxic conditions K-H. Wong',*, C.J. Koch2, C. A. Wallen' & K.T. Wheeler' 'Experimental Radiation Oncology, Department of Radiology, Bowman Gray School of Medicine, Winston-Salem, North Carolina 27103; and 2Department of Radiation Oncology, University of Pennsylvania, Philadelphia, Pennsylvania 19104, USA. Summary The acute toxicity, pharmacokinetics and hypoxic cytotoxicity of RSU-1069 were investigated using the subcutaneous (sc) rat 9L tumour model. The pharmacokinetics were studied after i.p. injection of RSU-1069 (20mgkg-' or 100mgkg-'). […] The 2-nitroimidazoles, originally designed as electron affinic radiosensitisers, have been reported to selectively kill hypoxic cells (Adams et al., 1980). This hypoxic cytotoxicity appears to be related to the anaerobic bioreductive metabolism of the drugs that releases reactive cytotoxic metabolites (Clark et al., 1980; Brown, 1982). By adding an alkylating group to the side chain of a 2-nitroimidazole, Adams et al. (1984a,b) postulated that a more efficient chemopotentiator and killer of hypoxic cells could be made without the compound losing its ability to sensitise hypoxic cells to ionising radiation. RSU-1069 was one of the compounds synthesised to achieve this goal. RSU-1069 has an aziridine group attached via a side chain to a 2-nitroimidazole. […] Although the ability to kill cells in vivo has been studied (Adams et al., 1984a,b; Chaplin et al., 1986; Olive et al., 1987; Cole et al., 1989; Siemann, 1989) the presence of both oxic and hypoxic cells in these tumours has made it difficult to determine if the relative efficiency of RSU-1069 for killing oxic and hypoxic cells in vivo is similar to that reported in vitro. In this report, we used the subcutaneous (sc) 9L tumour model to study the relative ability of RSU-1069 to kill oxic and hypoxic tumours cells in vivo.

Source text in data set [8]: as §1
For the next data set, the system named is other in vitro cells. Also noted: method as in Stratford et al., 1986. The conditions noted are these: ref Stratford et al., 1986; cited from earlier work.
The mark [9] stands for this setting: 20 mg kg-1 i.p., unclamped tumours.
The mark [10] stands for this setting: 100 mg kg-1 i.p., unclamped tumours.
The mark [11] stands for this setting: both doses (20 and 100 mg kg-1).

Molecules are shown by their SMILES. Read-outs that look alike come from different tables or passages of the source. A value given as a limit tells only on which side of the number the result lay.

Consider `COCC(O)Cn1ccnc1[N+](=O)[O-]` (stereo not shown) [MISO, misonidazole], for which the AUC30 in the data set on sc 9L tumour cells [1] was 877 µg·h/mL. Besides, the “time to return to unclamped tumour level after release of the clamp” value in [2] was “about 45 min”.
`O=[N+]([O-])c1nccn1CC(O)CN1CC1` (stereo not shown) [RSU-1069]: the SER in vitro result is recorded as “approximately 50” in the data set on 9L cells (2.1% O2 vs less than 7.5 x 10(-3)% O2), “approximately 100” with 9L cells (21% O2 vs less than 7.5 x 10(-3)% O2) and at most 100 in the data set on other in vitro cells. Further, the tumour/plasma ratio in data set [3] is 3.7-4; in data set [4], 0.2-0.4. Moreover, the radiosensitising enhancement ratio with hypoxic cells is reported as 1.2. Also, the “increase in time for tumours to reach four times their treatment size” value with KHT and RIF tumours is 3-4 fold. Further, the “difference in the volume of distribution” value in data set [5] was 2 fold. The “increase in the elimination t1/2” value in data set [5] is 37%. For the same molecule, in data set [6] (clinical trial, after a 70 mg kg-1 dose (so in the source)), the peak plasma level is 2 to 4 µg/mL. Besides, the “dose limited by nongenotoxic side-effects such as emesis” value in data set [6] (phase I clinical trial) is listed as “less than 70 mg m-2”. Also, the cell survival entry in the data set on sc 9L tumour cells [7] (20 mg kg-1, clamped tumours) is listed as “approximately 25%”; with sc 9L tumour cells [7] (20 mg kg-1, unclamped tumours) it was around 100%. In the data set with sc 9L tumour cells [7] (50 mg kg-1, clamped for various times), the “cell-kill kinetics as a function of clamping time” value is listed as “little additional cell kill was achieved after 40 min of clamping”. Further, the surviving fraction in the data set with sc 9L tumour cells [7] (50 mg kg-1, hypoxic (clamped 2 h)) is on record as around 0.001; with sc 9L tumour cells [7] (50 mg kg-1, oxic (unclamped)), “about 0.6”. Further, the AUC30 in the data set on sc 9L tumour cells [7] (rat, in vivo) is 0.15. Moreover, the “efficiency for killing hypoxic sc 9L tumour cells in situ relative to misonidazole or SR2508” value in the data set with sc 9L tumour cells [7] (rat, in vivo, sc) is recorded as 300-1000 fold. Moreover, the “sensitiser enhancement ratio (SER), hypoxic vs oxic sc 9L cells in vivo” value in the data set with sc 9L tumour cells [7] (rat, in vivo, sc) was 4.8. The maximum tumour/plasma ratio result in [8] (20 mg kg-1, in 60 min) is reported as “six”. Besides, the “plasma elimination t1/2” value in data set [8] (20 mg kg-1 i.p.) amounted to 47.8 ± 6.3 min; in data set [8] (100 mg kg-1 i.p., tumour unclamped), 39.3 ± 11.1 min. Moreover, the “time to peak plasma concentration” value in data set [8] (20 mg kg-1 i.p.) is given as “about 10 min”; in data set [8] (100 mg kg-1 i.p.), “approximately 25 min”. The “time to peak tumour concentration” value was found to be 10 min in data set [8] (20 mg kg-1 i.p.) and 30 min in data set [8] (setting [10]). The peak plasma concentration in data set [8] (20 mg kg-1 i.p., rat) amounted to 3 micrograms ml-1; in data set [8] (100 mg kg-1 i.p., rat), 40 micrograms ml-1. The values for the peak tumour concentration in data set [8] (setting [9]) and in data set [8] (setting [10]) were 4 micrograms g-1 and 50 micrograms g-1, respectively. The “tumour elimination t1/2” value in data set [8] (setting [9]) turned out to be 41.9 ± 6.1 min; in [8] (100 mg kg-1 i.p., tumour clamped 30 min after administration), 10.9 ± 1.4 min; in [8] (setting [10]), 36.1 ± 9.6 min. In addition, the “time to return to unclamped tumour concentration after release of the clamp” value in data set [8] (100 mg kg-1) was “about 60 min”. In addition, the “tumour/plasma ratio in clamped tumours” value in [8] (100 mg kg-1, about 90 min after clamping) was found to be 0.1. Also, the “drug concentration in clamped tumours” value in data set [8] (100 mg kg-1, beyond 120 min after clamping) was “undetectable”. Also, in data set [8] (100 mg kg-1, unclamped, in about 45 min), the peak tumour/plasma ratio entry is “exceeded four”. Further, the “constant unclamped tumour/plasma ratio after the maximum” value in data set [8] (setting [11]) is on record as “about 2”. Besides, in [8] (setting [11]), the “maximum unclamped tumour/plasma ratio” value was 4-6. Further, the “elimination from clamped sc 9L tumours faster than MISO or SR-2508” value in data set [8] (rat, in vivo) was “four”. Besides, the “peak plasma concentration at 100 mg kg-1 relative to 20 mg kg-1” value in data set [8] (rat, in vivo) is “about 13 times”. The “peak tumour concentration at 100 mg kg-1 relative to 20 mg kg-1” value in data set [8] (rat, in vivo) is listed as “about 13 times”.
`O=C(Cn1ccnc1[N+](=O)[O-])NCCO` [SR-2508]: the AUC30 with sc 9L tumour cells [1] was 748 µg·h/mL. The “time to return to unclamped tumour level after release of the clamp” value in data set [2] is “about 90 min”.
